Experimental data taken from paper PMC9961652 (International Journal of Molecular Sciences, 2023).
“Also recorded” adds a separate entry of the source.

How the values were obtained:
washed human platelets [1] = test: Thromboxane B2 ELISA assay; format: cell-based; conditions: different concentrations; thrombin stimulation; Indomethacin 20 µM as comparator
Procedure: (§1) (A–D) Washed human platelets were pre-incubated with 10 µM S-G04 or 20 µM R-G04 for 2 min before being stimulated with Arachidonic Acid (AA), U46619, ADP, or Thrombin. The % platelet aggregation was measured 5 min after agonist stimulation. (E) Washed human platelets were pre-incubated with 10 µM S-G04 or 20 µM R-G04 for 2 min and with Chrono-lume® for 30 s at 37 °C before being stimulated with 0.1 U/mL Thrombin. […] TxB2 formation was determined using a TxB2 ELISA kit. The differences among DMSO, R-G04, and S-G04 were analyzed using t-test, and the results are shown as means ± SDs of three independent experiments. (* p < 0.05, ** p < 0.01, *** p < 0.001, and **** p < 0.0001).
The level of TxB2 was measured with an enzyme immunoassay kit (No. 501020; Cayman Chemical, Ann Arbor, MI, USA) as previously described. […] The reactions were terminated by adding 250 µL of HEPES Tyrode’s buffer (pH 7.4) containing 2 mM EDTA. The platelets were centrifuged for 2 min, and the level of TxB2 in the supernatant was measured with the ELISA kit according to the manufacturer’s instructions.

RhoA = tested on: RhoA; set-up: method as in PMID 22726684, PMID 22956131; conditions: cited from earlier work
RhoA, Rac1 and Cdc42 = tested on: RhoA, Rac1 and Cdc42; set-up: method as in PMID 22726684, PMID 27681226; conditions: cited from earlier work
[2] = Pharmacokinetic profile (unpublished data)
washed human platelets [3] = test: Platelet aggregation induced by AA, U46619, ADP or thrombin; format: cell-based; conditions: 10 µM S-G04 or 20 µM R-G04, 2 min pre-incubation
From the text: TxA2 is a metabolite derived from AA via the COX pathway, a potent vasoconstrictor, and a platelet agonist that results in irreversible platelet aggregation. […] The data in Figure 7 show the potential of the RhoA inhibitors to inhibit platelet aggregation mediated by diverse agonists, i.e., TxA2, ADP, U46619, AA, and thrombin, and ATP secretion, highlighting the potential to inhibit multiple-agonist-mediated platelet activation pathways at micromolar concentrations.
as §1
The in vitro antiplatelet activity of the compounds was assayed on washed human platelets using light transmission aggregometry. Platelet aggregation was performed using a 4-channel Lumi-aggregometer (Chronolog, PA, USA) at 37 °C and stirring speed of 900 rpm. A volume of 250 µL of washed human platelets (2.5 × 10^8/mL) was pre-warmed to 37 °C along with the compounds or DMSO (0.1%) for 2 min before the addition of agonists such as collagen, AA, U46619 (a stable synthetic analog of thromboxane A2), ADP, and thrombin. For ATP secretion, platelets were pre-incubated with a luciferin/luciferase kit (Chrono-lume®) for 30 s at 37 °C before the addition of the agonist. The reactions were allowed to proceed for at least 4 min, and the results of platelet aggregation and ATP secretion were determined using Aggrolink software. Platelet aggregation was expressed as the maximum change in the light transmission, where the 100% value corresponded to treatment with the agonist alone. Compounds were evaluated in triplicate at nine compound concentrations ranging from 50 µM to 1 µM. The half-maximal inhibitory concentration (IC50) value was calculated as the concentration of the inhibitor causing 50% inhibition of aggregation.

myosin light chain (MLC) = test: Phosphorylation of myosin light chain (p-MLC), Western blot in collagen-stimulated platelets; format: cell-based, human; conditions: different concentrations of R-G04 or S-G04; collagen 1 µg/mL
Procedure: (A,B) Washed human platelets were incubated with collagen (1 µg/mL) for 4 min, and the levels of RhoA-GTP formation were quantified with a GST-Rhotekin effector pull-down assay. The platelets were pre-incubated with 20 µM UC-177618, UC-177619, UC-177628, UC-177629, […], or […] for 2 min before being stimulated with collagen. The addition of ice-cold lysis buffer terminated the reaction. […] Relative amounts of the GTP-bound form of RhoA were quantified with densitometry measurements of total RhoA (T-RhoA) and normalized to untreated platelets. […] The samples were processed for Western blotting and probed for MLC and p-MLC, and phosphorylation was quantified by measuring the densitometry of total MLC (T-MLC). The differences between DMSO- and Rhosin-related compounds were analyzed with t-test, and the results are shown as means ± SDs of three independent experiments. […]
A volume of 250 µL of washed human platelets (2.5 × 10^8/mL) was pre-warmed to 37 °C along with the compounds or DMSO (0.1%) for 2 min before being stimulated with collagen (1 µg/mL) for 4 min. The reactions were terminated by adding 4x Laemmli buffer, and phosphorylated MLC protein was detected with Western blotting as previously reported. Phosphorylation was quantified by measuring the densitometry.

washed human platelets [4] = test: Wash-out reversibility of inhibition of collagen-induced platelet aggregation; format: cell-based
Procedure: The reversible inhibition of Rhosin in collagen-induced platelet aggregation was assessed with similar wash-out experiments, and this reversible nature of Rhosin makes it a valuable antiplatelet drug candidate (Supporting Information Figure S4A,B). After confirming the structures of the above six active analogs, similar wash-out experiments were performed to compare the reversible function of the active analogs with Rhosin reversibility.

| pharmacokinetic profile [2] | SMILES | generation of TxA2, measured as thromboxane B2 (TxB2) (washed human platelets [1]) | affinity of binding to the Trp58 region of the RhoA surface (RhoA) | specificity of inhibition of Rho GTPase activation (RhoA, Rac1 and Cdc42) | AA-induced platelet aggregation (washed human platelets [3]) | ADP-induced platelet aggregation (washed human platelets [3]) | U46619-induced platelet aggregation (washed human platelets [3]) | thrombin-induced platelet aggregation (washed human platelets [3]) | phosphorylation of the MLC (myosin light chain (MLC)) | reversibility of inhibitory effect after wash-out (washed human platelets [4]) |
| --- | --- | --- | --- | --- | --- | --- | --- | --- | --- | --- |
| poor pharmacokinetic profile | N[C@H](Cc1c[nH]c2ccccc12)C(=O)N/N=C/c1ccc2nccnc2c1 [R-G04] | dose-dependent inhibition | micromolar affinity | specifically inhibits the activation of RhoA but not that of Rac1 and Cdc42 | failed to have the same inhibitory effect | significantly inhibited ADP-induced platelet aggregation | failed to have the same inhibitory effect | failed to have the same inhibitory effect | inhibited the downstream phosphorylation of the MLC | reversible |
|  | N[C@@H](Cc1c[nH]c2ccccc12)C(=O)N/N=C/c1ccc2nccnc2c1 [S-G04] | dose-dependent inhibition; also recorded: comparable to that of Indomethacin |  |  | suppressed the platelet activation | significantly inhibited ADP-induced platelet aggregation | suppressed the platelet activation | suppressed the platelet activation | inhibited the downstream phosphorylation of the MLC |  |
